Patent US10689363B2 (Merck Patent GmbH, priority 2017, dated 2020)
Where two headings read alike, the source gives them in different places.

Experiments:
[1] = Thermodynamic solubility (24 h, 37° C.) in FaSSIF medium or USP Phosphate buffer; type: physicochemical; settings: 24 h; for Thermodynamic solubility FaSSIF pH 6.5: FaSSIF pH 6.5, 37° C.; for Thermodynamic solubility PBS buffer 7.4: USP Phosphate buffer pH 7.4, 37° C.
[2] = Water Vapour Sorption isotherm (25° C., DVS-Intrinsic), hygroscopicity acc. to Ph. Eur. 5.11.; type: physicochemical; settings: for water uptake levels: 25° C.
Protocol: (§1) (based on multiple measurements on different samples of form A2). […] DSC scan of form A2 was acquired on a Mettler-Toledo DSC 821 with a heating rate of 50 K/min, using nitrogen purge gas at 50 mL/min. TGA scan of form A2 was acquired on a Mettler-Toledo TGA 851 with a heating rate of 5 K/min, using nitrogen purge gas at 50 mL/min. […] Eur. Criteria (section 5.11.). Water Vapour Sorption isotherm was acquired on a DVS-Intrinsic system from SMS.
(based on multiple measurements on different samples of form NF5). […] Eur. Criteria (section 5.11.). […] Water Vapour Sorption isotherm was acquired on a DVS-Intrinsic system from SMS.
(based on multiple measurements on one sample of form NF6). […] Eur. Criteria (section 5.11.). […] Water Vapour Sorption isotherm was acquired on a DVS-Intrinsic system from SMS.
Eur. Criteria (section 5.11.). […] Water Vapour Sorption isotherm was acquired on a DVS-Intrinsic system from SMS.
as §1, with “Other physical properties of” for “(based on multiple measurements on different samples of”, “form Fumarate-NF1 include the following: ^1H-NMR spectroscopic data reveal a API:Fumarate molar ratio of 1:1.” for “form A2).”, “form Fumarate-NF1” for “form A2”, “of 5” for “of 50”, “5.11.). […]” for “5.11.).”
Other physical properties of form Maleate-NF1 include the following: ^1H-NMR spectroscopic data reveal a API:Maleate molar ratio of 1:1. […] DSC scan of form Maleate-NF1 was acquired on a Mettler-Toledo DSC 821 with a heating rate of 5 K/min, using nitrogen purge gas at 50 mL/min. TGA scan of form Maleate-NF1 was acquired on a Mettler-Toledo TGA 851 with a heating rate of 5 K/min, using nitrogen purge gas at 50 mL/min. […] Form Maleate-NF1 can be classified as non-hygroscopic according to Ph. Eur. Criteria (section 5.11.). […] Water Vapour Sorption isotherm was acquired on a DVS-Intrinsic system from SMS.
Other physical properties of form Citrate-NF1 include the following: ^1H-NMR spectroscopic data reveal a API:Citrate molar ratio of 1:1. […] DSC scan of form Citrate-NF1 was acquired on a Mettler-Toledo DSC 821 with a heating rate of 5 K/min, using nitrogen purge gas at 50 mL/min. TGA scan of form Citrate-NF1 was acquired on a Mettler-Toledo TGA 851 with a heating rate of 5 K/min, using nitrogen purge gas at 50 mL/min. […] Eur. Criteria (section 5.11.). […] Water Vapour Sorption isotherm was acquired on a DVS-Intrinsic system from SMS.
(based on multiple measurements on different samples of form A1). […] DSC scan of form A1 was acquired on a Mettler-Toledo DSC 821 with a heating rate of 50 K/min, using nitrogen purge gas at 50 mL/min. TGA scan of form A1 was acquired on a Mettler-Toledo TGA 851 with a heating rate of 5 K/min, using nitrogen purge gas at 50 mL/min. […] Eur. Criteria (section 5.11.). […] Water Vapour Sorption isotherm was acquired on a DVS-Intrinsic system from SMS. […] Dissolution level of form A1 in Fasted-State Simulated Intestinal Fluid [FaSSIF, pH 6.5] at 37° C. was determined to be approx. 36 μg/mL (after 2 h), and dissolution level of form A1 in Fed-State Simulated Intestinal Fluid [FeSSIF, pH 5.0] at 37° C. was determined to be approx. 214 μg/mL (after 2 h), respectively (see example 11).
All forms were characterized according to standard methods which are found in e.g. Rolf Hilfiker, ‘Polymorphism in the Pharmaceutical Industry’. Wiley-VCH. Weinheim 2006 (Chapter 6: X-Ray Diffraction. Chapter 6: Vibrational Spectroscopy. Chapter 3: Thermal Analysis, Chapter 9: Water Vapour Sorption, and references therein); and H. G. Brittain, ‘Polymorphism in Pharmaceutical Solids. Vol. 95. Marcel Dekker Inc., New York 1999 (Chapter 6 and references therein).

[3] = Mini-dissolution in FaSSIF / FeSSIF medium at 37° C.; type: physicochemical; settings: for Dissolution levels in FaSSIF pH 6.5: FaSSIF pH 6.5, 37° C.; for Dissolution levels in FeSSIF pH 5.0: FeSSIF pH 5.0, 37° C.
Protocol: All dispersions were agitated at 37° C. for up to 2 hours. At defined time intervals (30 min. 60 min, 120 min), sample aliquots of homogeneous dispersions were withdrawn by a syringe, and filtrated via syringe filter adapters (PTFE, 0.45 μm).

[4] = pH 6.5
[5] = relative humidity range 0-80% rh
[6] = relative humidity range 90-98% rh

| Thermodynamic solubility FaSSIF pH 6.5 [1] | Thermodynamic solubility FaSSIF pH 6.5 ([1]; listed as Free base form A1) [μg/mL] | Thermodynamic solubility PBS buffer 7.4 [1] | Thermodynamic solubility PBS buffer 7.4 ([1]; listed as Free base form A1) [µg/mL] | hygroscopicity classification according to Ph. Eur. Criteria (section 5.11.) [2] | water uptake levels [2, 5] [wt %] | water uptake levels [2, 6] [wt %] | Dissolution levels in FaSSIF pH 6.5 ([3]; 30 min) [μg/mL] | Dissolution levels in FaSSIF pH 6.5 ([3]; 60 min) [μg/mL] | Dissolution levels in FaSSIF pH 6.5 ([3]; 120 min (2 h)) | Dissolution levels in FaSSIF pH 6.5 ([3]; 120 min (2 h), listed as Free base form Al) [μg/mL] | Dissolution levels in FeSSIF pH 5.0 ([3]; 30 min) [μg/mL] | Dissolution levels in FeSSIF pH 5.0 ([3]; 60 min) [μg/mL] | Dissolution levels in FeSSIF pH 5.0 ([3]; 120 min (2 h)) | Dissolution levels in FeSSIF pH 5.0 ([3]; 120 min (2 h), listed as Free base form A1) [μg/mL] | hygroscopicity classification according to Ph. Eur. Criteria (section 5.11.) ([2]; listed as NF6) | kinetic solubility levels (4 h), factor higher vs form A1 [4] | hygroscopicity classification according to Ph. Eur. Criteria (section 5.11.) ([2]; listed as NF5) | water uptake levels ([2]; relative humidity level of 98% rh) [wt %] | water uptake levels ([2]; relative humidity range 0-90% rh) [wt %] | SMILES |
| --- | --- | --- | --- | --- | --- | --- | --- | --- | --- | --- | --- | --- | --- | --- | --- | --- | --- | --- | --- | --- |
| approx. 21 μg/mL | 21 | approx. 14 μg/mL | 14 | slightly hygroscopic | ≤ 1 | ≤ 2 | 25 | 33 | approx. 36 μg/mL | 36 | 190 | 205 | approx. 214 μg/mL | 214 |  |  |  |  |  | C=CC(=O)N1CCC(CNc2ncnc(N)c2-c2ccc(Oc3ccccc3)cc2)CC1 [form A1, 1-(4-{[6-Amino-5-(4-phenoxy-phenyl)-pyrimidin-4-ylamino]-methyl}-piperidin-1-yl)-propenone] |
|  |  |  |  | slightly hygroscopic | ≤ 2 | ≤ 3 |  |  |  |  |  |  |  |  | Slightly hygroscopic | ~3 |  |  |  | C=CC(=O)N1CCC(CNc2ncnc(N)c2-c2ccc(Oc3ccccc3)cc2)CC1 [form NF6, 1-(4-{[6-Amino-5-(4-phenoxy-phenyl)-pyrimidin-4-ylamino]-methyl}-piperidin-1-yl)-propenone] |
|  |  |  |  | slightly hygroscopic |  |  |  |  |  |  |  |  |  |  |  | ~1.5 | Slightly hygroscopic | ≤ 2 | ≤ 1 | C=CC(=O)N1CCC(CNc2ncnc(N)c2-c2ccc(Oc3ccccc3)cc2)CC1 [form NF5, 1-(4-{[6-Amino-5-(4-phenoxy-phenyl)-pyrimidin-4-ylamino]-methyl}-piperidin-1-yl)-propenone] |
